Some test systems named below: EKVX; MCF7; OVCAR-3; COLO 205; Malme-3M; 786-0; NCI-H226; NCI-H460; SN12C; A549; NCI-H23; HT-29; UO-31; T47D; K562; IGROV-1; NCI/ADR-RES; UACC-257; SK-MEL-28; MDA-MB-435.
What all share (experiment): DTP human tumour cell line panel, 48 h

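Growth conditions: 96-well plates. Treatment: test compound, 48 hours, 5 concentrations. Analysis: linear interpolation between bracketing concentrations; unreached endpoints set to highest concentration. GI50 marks 50% less growth.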 Calls of active or inactive are those of the source. No stated cut-off is given here; in the data, active = GI50 up to about 1.1 µM and inactive = higher.

Consider 10 molecules from ChEMBL document CHEMBL1201862, “PubChem BioAssay data set” (2004).

For the molecule `C1=C2C3=[N+](CCCC3)CC2Cc2sccc21` (stereo not given), the GI50 in the assay on EKVX is 42.7 µM (inactive); in the assay on MCF7, > 100 µM (inactive); in the assay with OVCAR-3, 64.4 µM (inactive); in the assay with COLO 205, 67.1 µM (inactive); in the assay on Malme-3M, 49.1 µM (inactive); in the assay on 786-0, > 100 µM (inactive). Besides, the GI50 in the assay on NCI-H226 was > 100 µM (inactive); with NCI-H460, 52.7 µM (inactive); in the assay with SN12C, 92.7 µM (inactive); in the assay with A549 it was 30 µM (inactive); with NCI-H23, > 100 µM (inactive); in the assay with HT-29, 53.2 µM (inactive). Further, the GI50 was > 100 µM (inactive) in the assay with UO-31; 74.8 µM (inactive) in the assay with T47D; > 100 µM (inactive) in the assay with K562; > 100 µM (inactive) in the assay on IGROV-1; > 100 µM (inactive) in the assay on NCI/ADR-RES; 33.3 µM (inactive) with UACC-257. Moreover, the GI50 in the assay with SK-MEL-28 and with MDA-MB-435 was > 100 µM (inactive) each time.

Consider `CC(C)(C)c1ccc2c(c1)CNCCNCc1cc(C(C)(C)C)ccc1OCC1(CO2)COc2ccc(C(C)(C)C)cc2CNCCNCc2cc(C(C)(C)C)ccc2OC1`, for which the GI50 in the assay on EKVX is 1.27 µM (inactive); with MCF7, 0.461 µM (active); in the assay with OVCAR-3, 1.61 µM (inactive); in the assay with COLO 205, 0.649 µM (active); in the assay with Malme-3M it was 1.41 µM (inactive); in the assay on 786-0 it was 0.25 µM (active). The GI50 in the assay with NCI-H226 is 1.55 µM (inactive); in the assay with NCI-H460 it was 0.276 µM (active); in the assay on SN12C, 0.404 µM (active); in the assay with A549, 0.433 µM (active); in the assay with NCI-H23 it was 0.948 µM (active); in the assay with HT-29, 0.665 µM (active). Further, the GI50 is 1.8 µM (inactive) with UO-31; 1.91 µM (inactive) with T47D; 0.213 µM (active) with K562; 1.28 µM (inactive) in the assay with IGROV-1; 1.63 µM (inactive) in the assay on NCI/ADR-RES; 1.54 µM (inactive) with UACC-257. Moreover, the GI50 in the assay on SK-MEL-28 was 1.71 µM (inactive); with MDA-MB-435 it was 0.271 µM (active).

`Cc1cn(C2CC(O)C(COP(=O)(O)OC3CC(n4c[n+]([BH2-]C#N)c5c(=O)[nH]c(N)nc54)OC3CO)O2)c(=O)[nH]c1=O` (stereo not given): the GI50 in the assay with EKVX, in the assay on MCF7, with OVCAR-3, with COLO 205, in the assay with Malme-3M and in the assay with 786-0 was > 100 µM (inactive) throughout. Further, the GI50 in the assay on NCI-H226, in the assay on NCI-H460, with SN12C, in the assay with A549, in the assay with NCI-H23 and in the assay with HT-29 was > 100 µM (inactive) in each case. Further, the GI50 in the assay with UO-31, in the assay with T47D, in the assay with K562, in the assay on IGROV-1, in the assay on NCI/ADR-RES and in the assay with UACC-257 was > 100 µM (inactive) throughout. The GI50 in the assay with SK-MEL-28 and with MDA-MB-435 was > 100 µM (inactive) in each case.

For `O=C(O)c1cccc(/N=N/c2c(S(=O)(=O)O)ccc3c2C(=O)c2ccccc2C3=O)c1O`, the GI50 was > 100 µM (inactive) in the assay on EKVX; > 100 µM (inactive) in the assay with MCF7; > 100 µM (inactive) in the assay with OVCAR-3; > 100 µM (inactive) in the assay with COLO 205; 54.6 µM (inactive) in the assay with Malme-3M; > 100 µM (inactive) in the assay on 786-0. Also, the GI50 with NCI-H226, with NCI-H460, in the assay on SN12C, in the assay with A549, in the assay with NCI-H23 and with HT-29 was > 100 µM (inactive) each time. The GI50 in the assay on UO-31, in the assay with T47D, with K562, with IGROV-1, in the assay on NCI/ADR-RES and in the assay with UACC-257 was > 100 µM (inactive) in each case. The GI50 in the assay on SK-MEL-28 and with MDA-MB-435 was > 100 µM (inactive) each time.

Consider `CN(C)CCCNC(=O)c1cc(NC(=O)CCCn2c3ccccc3c3ccccc32)cn1C`, for which the GI50 in the assay with EKVX was 15.6 µM (inactive); in the assay with MCF7, 35.5 µM (inactive); in the assay on OVCAR-3, 11.5 µM (inactive); with COLO 205, 21.9 µM (inactive); with Malme-3M, 17.2 µM (inactive); in the assay with 786-0 it was 80.9 µM (inactive). Further, the GI50 in the assay on NCI-H226 was 25.3 µM (inactive); in the assay on NCI-H460, 28.8 µM (inactive); in the assay with SN12C, 48.5 µM (inactive); in the assay on A549 it was 20.7 µM (inactive); with NCI-H23, 31.8 µM (inactive); in the assay on HT-29 it was 47.6 µM (inactive). In addition, the GI50 in the assay with UO-31 was 25.5 µM (inactive); in the assay on T47D, 19.1 µM (inactive); in the assay with K562, 31.6 µM (inactive); in the assay on IGROV-1 it was 6.64 µM (inactive); in the assay on NCI/ADR-RES, > 100 µM (inactive); in the assay on SK-MEL-28, 49.7 µM (inactive). Also, the GI50 in the assay on MDA-MB-435 was 24.3 µM (inactive).

In the case of `CCN(CC)CCNc1c(OC)cc(C)c2sc3ccccc3c(=O)c12`, the GI50 was 16.8 µM (inactive) in the assay on EKVX; 4.44 µM (inactive) in the assay on MCF7; 11.8 µM (inactive) in the assay with OVCAR-3; 2.06 µM (inactive) in the assay on COLO 205; 2.13 µM (inactive) in the assay with Malme-3M; 7.53 µM (inactive) in the assay with 786-0. Further, the GI50 in the assay on NCI-H226 is 3.4 µM (inactive); in the assay with NCI-H460, 4.5 µM (inactive); in the assay on SN12C, 2.79 µM (inactive); with A549 it was 4.31 µM (inactive); with NCI-H23, 14.5 µM (inactive); with HT-29, 2.61 µM (inactive). The GI50 in the assay on UO-31 was 6.32 µM (inactive); with T47D, 11.4 µM (inactive); in the assay on K562, 1.71 µM (inactive); in the assay on IGROV-1, 7.69 µM (inactive); in the assay on NCI/ADR-RES it was 5.27 µM (inactive); in the assay with UACC-257, 1.82 µM (inactive). Also, the GI50 in the assay with SK-MEL-28 is 1.92 µM (inactive); in the assay on MDA-MB-435, 3.08 µM (inactive).

Take `Cc1nn(C(=O)c2ccc(Cl)cc2)c2c1C(c1cccc([N+](=O)[O-])c1)SC(=N)N2` (stereo not given): the GI50 in the assay on EKVX, in the assay on MCF7, in the assay on OVCAR-3, in the assay on COLO 205, in the assay with Malme-3M and in the assay with 786-0 was > 10 µM (inactive) in each case. For the same molecule, the GI50 with NCI-H226, in the assay on NCI-H460, in the assay on SN12C, with A549, in the assay on NCI-H23 and with HT-29 was > 10 µM (inactive) each time. The GI50 with T47D, with K562, with IGROV-1, with NCI/ADR-RES, in the assay on UACC-257 and with SK-MEL-28 was > 10 µM (inactive) throughout. In addition, in the assay with MDA-MB-435, the GI50 was > 10 µM (inactive).

With `Cc1cccc(-n2c(C)nc3ccc(NC4OC(CO)C(O)C(O)C4O)cc3c2=O)c1` (stereo not given), the GI50 with EKVX, in the assay on MCF7, in the assay with OVCAR-3, in the assay on COLO 205, in the assay with Malme-3M and in the assay on 786-0 was > 100 µM (inactive) each time. For the same molecule, the GI50 with NCI-H226, in the assay with NCI-H460, with SN12C, with NCI-H23, in the assay with HT-29 and with UO-31 was > 100 µM (inactive) throughout. Further, the GI50 in the assay with T47D, with K562, in the assay with IGROV-1, with NCI/ADR-RES, in the assay with UACC-257 and with SK-MEL-28 was > 100 µM (inactive) in each case. The GI50 in the assay with MDA-MB-435 is > 100 µM (inactive).

Turning to `COC(=O)c1ccc2c(c1)S/C(=C/c1ccc3ccc4cccc5ccc1c3c45)S2`, the GI50 in the assay with EKVX was > 100 µM (inactive); with MCF7 it was 33.3 µM (inactive); in the assay with OVCAR-3, 23.2 µM (inactive); in the assay with COLO 205, > 100 µM (inactive); in the assay with Malme-3M it was 32.7 µM (inactive); in the assay with 786-0 it was > 100 µM (inactive). Moreover, the GI50 was > 100 µM (inactive) in the assay with NCI-H226; 64.4 µM (inactive) in the assay with NCI-H460; > 100 µM (inactive) in the assay with SN12C; 42 µM (inactive) in the assay on A549; 19 µM (inactive) with NCI-H23; > 100 µM (inactive) with HT-29. In addition, the GI50 in the assay on UO-31 is > 100 µM (inactive); in the assay with T47D, > 100 µM (inactive); in the assay on K562, 34.3 µM (inactive); in the assay on IGROV-1 it was 46 µM (inactive); in the assay with NCI/ADR-RES it was 23.7 µM (inactive); with UACC-257, > 100 µM (inactive). For the same molecule, the GI50 in the assay on MDA-MB-435 was 26.6 µM (inactive).

As for `COc1cccc(-c2ccc3c4c2O[C@H]2c5[nH]c6ccccc6c5C[C@@]5(O)[C@@H](C3)N(CC3CC3)CC[C@]425)c1`, the GI50 in the assay on EKVX is 3.86 µM (inactive); in the assay on MCF7, 1.69 µM (inactive); in the assay on OVCAR-3, 1.9 µM (inactive); in the assay with COLO 205 it was 1.81 µM (inactive); with Malme-3M it was 1.5 µM (inactive); with 786-0, 1.7 µM (inactive). For the same molecule, the GI50 was 6.84 µM (inactive) with NCI-H226; 1.79 µM (inactive) with NCI-H460; 1.67 µM (inactive) in the assay with SN12C; 1.77 µM (inactive) in the assay on A549; 2.21 µM (inactive) in the assay on NCI-H23; 1.7 µM (inactive) with HT-29. Further, the GI50 in the assay with UO-31 is 1.72 µM (inactive); with T47D, 2.1 µM (inactive); in the assay on K562 it was 1.9 µM (inactive); with IGROV-1, 1.64 µM (inactive); in the assay on NCI/ADR-RES, 2.07 µM (inactive); in the assay on UACC-257, 1.74 µM (inactive). For the same molecule, in the assay with MDA-MB-435, the GI50 is 1.77 µM (inactive).
